SMILES strings stand for the structures.

Here are results for two compounds from patent US8835425B2, “Use of selective GABA A α5 negative allosteric modulators for the treatment of central nervous system conditions” (Hoffmann-La Roche Inc., priority 2010, dated 2014).

For one series, the target named is human GABA A α5β3γ2 (Homo sapiens, UniProt P18507+P31644). Put plainly: Two-microelectrode voltage clamp, modulation of GABA EC10 response in Xenopus oocytes, α5β3γ2. Details: expressed in transfected cells; host or cells: Xenopus laevis oocytes. It counts as cell-based. Conditions: % change of submaximal (EC10) response to GABA at 30×Ki. Here is the method:
Table 2b. […] Effect at human GABA A α5 receptors: % change of a submaximal (EC10) response to GABA determined at 30×Ki value from the flumazenil binding assay.
Subtype-selective effects were determined on cloned receptors expressed in Xenopus oocytes. Human recombinant GABA A receptors were expressed in Xenopus laevis oocytes. Current responses were evoked in two-microelectrode voltage-clamp condition by applying an EC10 of GABA before and during the co-application of the test compound. Response amplitudes in the presence of the test compound are expressed as percentage of the amplitudes before drug addition.

Series [1] has as its system Ts65Dn and control mice. Put plainly: Spatial learning: Morris water maze. Format: in vivo. Conditions: 20 mg/kg p.o. chronic; for Ts65Dn mice performance in MWM acquisition sessions / control mice performance in MWM acquisition sessions: vs vehicle; for latency to reach the platform during cued sessions: in Ts65Dn but not in control mice. Here is the method: (§1) For mice studies, active pharmaceutical compounds of present invention were formulated in chocolate-milk (Puleva, Barcelona, Spain). Active pharmaceutical compounds of present invention or vehicle were administered p.o. at a dose of 20 mg/kg for six weeks. Their administration was prolonged during the 30 days of the behavioral assessment.
To evaluate spatial learning the Morris Water Maze was used. The apparatus was a circular tank of 110 cm in diameter, full of water (22-24° C.) made opaque by the addition of powdered milk. Inside the tank, a platform was hidden 1 cm below the water level. Animals were tested at the end of the treatment period in 12 consecutive daily sessions: 8 acquisition sessions (platform submerged), followed by 4 cued sessions (platform visible). All trials were videotaped with a camera located 2 m above the water level. A SMART computerized tracking system (Panlab S. A., Barcelona, Spain) was used to analyze the mouse trajectories, measure escape latency, distance traveled, and swimming speed for each animal in each trial.
In the acquisition sessions (S1-S8), the platform was hidden 1 cm below the water level. From one daily session to the next, the platform was placed in a different location (E, SW, center, and NW); each position was used once every four consecutive daily sessions. Each of the 8 acquisition and 4 cued sessions (one session per day) consisted of four pairs of trials, 30-45 min apart. For each trial pair, the mice were randomly started from one of four positions (N, S, E, W), which was held constant for both trials. The first trial of a pair was terminated when the mouse located the platform or when 60 s had elapsed; the second trial commenced following a period of 20 s, during which the animal was allowed to stay on the platform. Several fixed cues outside of the maze were constantly visible from the pool.
During the cued sessions the platform was visible: the water level was 1 cm below the platform, and its position was indicated with a flag. Eight trials were performed during each session, following the same experimental procedure as in the acquisition sessions.

Another series has as its target human GABA A α3β3γ2 (Homo sapiens, UniProt P18507+P34903). Put plainly: [3H]flumazenil competition binding, HEK293 cells expressing human α3β3γ2. Details: expressed in transfected cells; host or cells: HEK293. Conditions: for hKi α3/hKi α5: binding selectivity ratio.
The next series deals with human GABA A α1β2/3γ2 (Homo sapiens, UniProt P14867+P18507). Put plainly: Two-microelectrode voltage clamp, modulation of GABA EC10 response in Xenopus oocytes, α1β2/3γ2. Conditions: % change of EC10 GABA response at 3 μM or at 30×Ki if Ki below 0.1 μM. Format: cell-based. Details: expressed in transfected cells; host or cells: Xenopus laevis oocytes.
Series [2] deals with Ts65Dn and control mice. Put plainly: Spontaneous activity: actimetry. Format: in vivo. Conditions: 20 mg/kg p.o. chronic, vs vehicle. Here is the method: as §1
In this test the circadian variation of the animals' spontaneous locomotor activity during a complete light-dark cycle of 24 hours was evaluated. The apparatus is a device (Acti-system II, Panlab, Barcelona) that detects the changes produced in a magnetic field by the movement of the mice. It registers the movements of animals during a continuous 24 hour cycle (12 hours of light and 12 hours of darkness).

For the compound `FC(F)c1ncn2c1Cn1ncnc1-c1cc(Br)ccc1-2` [Compound 8581, 3-Bromo-10-difluoromethyl-9H-imidazo[1,5-a][1,2,4]triazolo[1,5-d][1,4]benzodiazepine], the “Efficacy GABA A α5β3γ2” value at human GABA A α5β3γ2 is −46%. For the same compound, in the series with Ts65Dn and control mice [1], the “difference between Ts65Dn and control learning curves in MWM” value is reported as “reduced”; the “Ts65Dn mice performance in MWM acquisition sessions” value was “significantly improved Ts65Dn mice performance”; the “control mice performance in MWM acquisition sessions” value is recorded as “did not significantly affect control mice performance”; the “latency to reach the platform during cued sessions” value is reported as “reduced the latency to reach the platform”. Also, on human GABA A α3β3γ2, the Ki worked out at 0.0796 µM and the “hKi α3/hKi α5” value is 17. Moreover, on human GABA A α1β2/3γ2, the “Efficacy GABA A α1β2/3γ2” value is reported as −1%. Also, in the series on Ts65Dn and control mice [2], the “spontaneous activity in home cage, dark or light phase” value is reported as “did not differ in the amount of spontaneous activity”.

As to `Cc1onc(-c2ccc(F)cc2)c1COc1ccc(C(=O)N2CCS(=O)(=O)CC2)cn1` [Compound R1, (1,1-Dioxo-1,6-thiomorpholin-4-yl)-{6-[3-(4-fluoro-phenyl)-5-methyl-isoxazol-4-ylmethoxy]-pyridin-3-yl}-methanone], the “Efficacy GABA A α5β3γ2” value on human GABA A α5β3γ2 is listed as −39%. Besides, in the series with Ts65Dn and control mice [1], the “difference between Ts65Dn and control learning curves in MWM” value is “reduced”; the “Ts65Dn mice performance in MWM acquisition sessions” value was “improved Ts65Dn mice cognition”; the “control mice performance in MWM acquisition sessions” value was “did not significantly affect control mice performance”; the “latency to reach the platform during cued sessions” value is on record as “reduced the latency to reach the platform”. Moreover, at human GABA A α3β3γ2, the Ki came to 0.489 µM and the “hKi α3/hKi α5” value was determined as 104. The “Efficacy GABA A α1β2/3γ2” value at human GABA A α1β2/3γ2 is −4%. The “spontaneous activity in home cage, dark or light phase” value in the series with Ts65Dn and control mice [2] was “did not differ in the amount of spontaneous activity”.
